Measured values taken from US5707966A, “Antithrombotic agents” (Eli Lilly and Company, priority 1995, dated 1998).
Structures can show the parent of a compound that is named as a salt. Where two headings read alike, the source gives them in different places.

Columns and labels:
Assay type in all cases: biochemical
[1] = test system: Human plasma; assay: Human plasma anticoagulation, thrombin time (TT); details: concentration required to double the thrombin time, linear extrapolation
Protocol: (§1) Dog plasma and rat plasma is obtained from conscious mixed-breed hounds (either sex, Hazelton-LRE, Kalamazoo, Mich., U.S.A.) or from anesthetized male Sprague-Dawley rats (Harlan Sprague-Dawley, Inc., Indianapolis, Ind., U.S.A.) by venipuncture into 3.8 percent citrate. Fibrinogen is prepared from in-date ACD human blood as the fraction I-2 according to previous procedures and specifications. […] Human fibrinogen is also purchased as 98 percent pure/plasmin free from American Diagnostica, Greenwich, Conn. Coagulation reagents ACTIN, Thromboplastin, and Human plasma are from Baxter Healthcare Corp., Dade Division, Miami, Fla. Bovine thrombin from Parke-Davis ([…], Mich.) is used for coagulation assays in plasma.
(§2) Coagulation assay procedures are as previously described. […] A CoAScreener coagulation instrument (American LABor, Inc.) is used for all coagulation assay measurements. The prothrombin time (PT) is measured by adding 0.05 mL saline and 0.05 mL Thromboplastin-C reagent to 0.05 mL test plasma. The activated partial thromboplastin time (APTT) is measured by incubation of 0.05 mL test plasma with 0.05 mL Actin reagent for 120 seconds followed by 0.05 mL CaCl2 (0.02M). The thrombin time (TT) is measured by adding 0.05 mL saline and 0.05 mL thrombin (10 NIH units/mL) to 0.05 mL test plasma. The compounds of Formula I are added to human or animal plasma over a wide range of concentrations to determine prolongation effects on the APTT, PT, and TT assays. Linear extrapolations are performed to estimate the concentrations required to double the clotting time for each assay.

[2] = test system: Human plasma; assay: Human plasma anticoagulation, prothrombin time (PT); details: concentration required to double the PT, linear extrapolation
Protocol: as §1, §2

[3] = target: T1, Bovine trypsin (Bos taurus, UniProt P00760); assay: Kass with trypsin, chromogenic substrate; details: substrate N-Benzoyl-Phe-Val-Arg-p-nitroanilide
T1 construct: Bovine trypsin is purchased; purchased Worthington Biochemicals, Freehold, N.J
T1 sequence (P00760 24-246): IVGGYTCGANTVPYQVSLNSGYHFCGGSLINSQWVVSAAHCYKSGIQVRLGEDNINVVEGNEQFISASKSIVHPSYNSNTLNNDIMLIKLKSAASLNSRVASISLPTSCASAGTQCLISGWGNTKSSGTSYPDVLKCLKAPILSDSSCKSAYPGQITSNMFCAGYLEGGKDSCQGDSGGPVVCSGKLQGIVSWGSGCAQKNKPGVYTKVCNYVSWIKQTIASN
Protocol: By substantially following the procedures described above for human thrombin, and using other human blood coagulation system serine proteases and proteases of the fibrinolytic system with the appropriate chromogenic substrates, identified below, selectivity of the compounds of the present invention with respect to the coagulation factor serine proteases and with respect to the fibrinolytic system serine proteases are evaluated as well as their substantial lack of interference with serine proteases of the fibrinolytic system. Thrombin inhibitors preferably should spare fibrinolysis induced by urokinase, tissue plasminogen activator (t-PA) and streptokinase. This would be important to the therapeutic use of such agents as an adjunct to streptokinase, t-PA or urokinase thrombolytic therapy and to the use of such agents as an endogenous fibrinolysis-sparing (with respect to t-PA and urokinase) antithrombotic agent. In addition to the lack of interference with the amidase activity of the fibrinolytic proteases, such fibrinolytic system sparing can be studied by the use of human plasma clots and their lysis by the respective fibrinolytic plasminogen activators.
Human factors X, Xa, IXa, XIa, and XIIa are purchased from Enzyme Research Laboratories, South Bend, Ind.; human urokinase from Leo Pharmaceuticals, Denmark; and recombinant activated Protein C (aPC) is prepared at Eli Lilly and Co. substantially according to U.S. Patent No. 4,981,952. Chromogenic substrates: N-Benzoyl-Ile-Glu-Gly-Arg-p-nitroanilide (for factor Xa); N-Cbz-D-Arg-Gly-Arg-p-nitroanilide (for factor IXa assay as the factor Xa substrate); Pyroglutamyl-Pro-Arg-p-nitroanilide (for Factor XIa and for aPC); H-D-Pro-Phe-Arg-p-nitroanilide (for factor XIIa); and Pyroglutamyl-Gly-Arg-p-nitroanilide (for urokinase); are purchased from KabiVitrum, Stockholm, Sweden, or from Midwest Biotech, Fishers, Ind. Bovine trypsin is purchased from Worthington Biochemicals, Freehold, N.J., and human plasma kallikrein from Kabi Vitrum, Stockholm, Sweden. Chromogenic substrate H-D-Pro-Phe-Arg-p-nitroanilide for plasma kallikrein is purchased from Kabi Vitrum, Stockholm, Sweden. N-Benzoyl-Phe-Val-Arg-p-nitroanilide, the substrate for human thrombin and for trypsin, is synthesized according to procedures described above for the compounds of the present invention, using known methods of peptide coupling from commercially available reactants or purchased from Midwest Biotech, Fishers, Ind.

[4] = test system: Human plasma; assay: Human plasma anticoagulation, activated partial thromboplastin time (APTT); details: concentration required to double the APTT, linear extrapolation
Protocol: as §1, §2

[5] = target: Human Thrombin (Homo sapiens, UniProt P00734); assay: Inhibition of amidase activity of thrombin (Kass)
[6] = mean over a range of concentrations, […]

| Structure (SMILES) | Human Plasma Anticoagulation 2× Clotting time TT [1] | Human Plasma Anticoagulation 2× Clotting time PT [2] | Kass Trypsin [3] | Human Plasma Anticoagulation 2× Clotting time APTT [4] | Kass Human Thrombin [5, 6] | Kass Human Thrombin [5] |
| --- | --- | --- | --- | --- | --- | --- |
| CCS(=O)(=O)N[C@H](Cc1ccccc1)C(=O)N1CCC[C@H]1C(=O)NCCc1cccc(NC(=N)N)c1 [Example 37, EtSO2 -D-Phe-Pro-m-NHCH2 CH2 C6 H4 NHC(NH)NH2.HCl] | > 9,000 ng/mL | > 9,000 ng/mL | < 0.009 × 10^6 (L/mole) | > 9,000 ng/mL | 0.02 × 10^6 (L/mole) | – |
| Nc1ccc(CNC(=O)[C@@H]2CCCN2C(=O)[C@@H](CC2CCCCC2)NCC(=O)O)cc1 [Example 62, HO2 CCH2 -D-Cha-Pro-4-NHCH2 C6 H4 NH2.HCl] | 54 ng/mL | – | – | – | 7.6 × 10^6 (L/mole) | – |
| Nc1ccc(CCNC(=O)[C@@H]2CCCN2C(=O)[C@@H](CC2CCCCC2)NCC(=O)O)cc1 [Example 63, HO2 CCH2 -D-Cha-Pro-4-NHCH2 CH2 C6 H4 NH2.HCl] | 680 ng/mL | – | – | – | 0.31 × 10^6 (L/mole) | – |
| Cl.N=C(N)c1cc(CNC(=O)[C@@H]2CCCN2C(=O)[C@@H](CC2CCCCC2)NCC(=O)O)cs1 [Example 65, HO2 CCH2 -D-Cha-pro-4-NHCH2-2-amidinothiophene.HCl] | 1 ng/mL | – | 570 × 10^6 (L/mole) | 48 ng/mL | 4,500 × 10^6 (L/mole) | – |
| N=C(N)c1ccc(CNC(=O)[C@@H]2CCCN2C(=O)[C@@H](CC2CCCCC2)NCC(=O)O)nc1 [Example 66, HO2 CCH2 -D-Cha-Pro-2-NHCH2 -5-amidinopyridine.HCl] | 7.9 ng/mL | 270 ng/mL | 4.6 × 10^6 (L/mole) | 180 ng/mL | 120 × 10^6 (L/mole) | – |
| N=C(N)C1CCC(CNC(=O)[C@@H]2CCCN2C(=O)[C@@H](CC2CCCCC2)NCC(=O)O)NC1 (stereo partly drawn) [Example 67, HO2 CCH2 -D-Cha-pro-2-NHCH2-5-amidinopiperidine.HCl] | 34 ng/mL | 1,300 ng/mL | – | 1,800 ng/mL | – | 11 |
| N=C(N)C1=CNC(CNC(=O)[C@@H]2CCCN2C(=O)[C@@H](CC2CCCCC2)NCC(=O)O)CC1 (stereo partly drawn) [Example 68, HO2 CCH2 -D-Cha-Pro-2-NHCH2 -5-amidino-5,6-dehydro-piperidine.HCl] | 4 ng/mL | 190 ng/mL | – | 49 ng/mL | 600 × 10^6 (L/mole) | – |
| N=C(N)c1ccc(CNC(=O)[C@@H]2CCCN2C(=O)[C@@H](CC2CCCCC2)NCC(=O)O)nn1 [Example 69, HO2 CCH2 -D-Cha-Pro-3-NHCH2 -6-amidinopyridazine.HCl] | 5 ng/mL | 220 ng/mL | 3.7 × 10^6 (L/mole) | 110 ng/mL | 340 × 10^6 (L/mole) | – |
| N=C(N)N1CC=C(CNC(=O)[C@@H]2CCCN2C(=O)[C@@H](CC2CCCCC2)NCC(=O)O)CC1 [Example 70, HO2 CCH2 -D-Cha-Pro-4-NHCH2 -1-amidino-3,4-dehydro-piperidine.HCl] | 2 ng/mL | 180 ng/mL | 9.8 × 10^6 (L/mole) | 160 ng/mL | 430 × 10^6 (L/mole) | – |
| N=C(N)c1ccc(CNC(=O)[C@@H]2CCCN2C(=O)[C@@H](CC2CCCCC2)NCC(=O)O)c(F)c1 [Example 71, HO2 CCH2 -D-Cha-Pro-4-NHCH2 -3-F-benzamidine.HCl] | 1 ng/mL | 150 ng/mL | 240 × 10^6 (L/mole) | 89 ng/mL | 1,400 × 10^6 (L/mole) | – |
| N=C(N)c1cc(F)c(CNC(=O)[C@@H]2CCCN2C(=O)[C@@H](CC2CCCCC2)NCC(=O)O)c(F)c1 [Example 72, HO2 CCH2 -D-Cha-Pro-4-NHCH2 -3,5-F2 -benzamidine.HCl] | 1 ng/mL | 160 ng/mL | 280 × 10^6 (L/mole) | 160 ng/mL | 2,300 × 10^6 (L/mole) | – |
| Nc1cc(CNC(=O)[C@@H]2CCCN2C(=O)[C@@H](CC2CCCCC2)NCC(=O)O)ccn1 [Example 73, HO2 CCH2 -D-Cha-Pro-4-NHCH2 -2-aminopyridine.HCl] | 21 ng/mL | 330 ng/mL | – | 340 ng/mL | 28 × 10^6 (L/mole) | – |
| Nc1ccc(CNC(=O)[C@@H]2CCCN2C(=O)[C@@H](CC2CCCCC2)NCC(=O)O)cn1 [Example 74, HO2 CCH2 -D-Cha-Pro-5-NHCH2 -2-aminopyridine.HCl] | 20 ng/mL | 350 ng/mL | – | 420 ng/mL | 29 × 10^6 (L/mole) | – |
| Nc1ccc(CCNC(=O)[C@@H]2CCCN2C(=O)[C@@H](CC2CCCCC2)NCC(=O)O)cn1 [Example 75, HO2 CCH2 -D-Cha-Pro-5-NHCH2 CH2 -2-aminopyridine.HCl] | – | – | – | – | 0.45 × 10^6 (L/mole) | – |
| Nc1cc(CCNC(=O)[C@@H]2CCCN2C(=O)[C@@H](CC2CCCCC2)NCC(=O)O)ccn1 [Example 76, HO2 CCH2 -D-Cha-Pro-4-NHCH2 CH2 -2-aminopyridine.HCl] | 29 ng/mL | 560 ng/mL | 0.36 × 10^6 (L/mole) | 490 ng/mL | 12 × 10^6 (L/mole) | – |
| Nc1ccc(CNC(=O)[C@@H]2CCCN2C(=O)[C@@H](CC2CCCCC2)NCC(=O)O)cc1F [Example 77, HO2 CCH2 -D-Cha-Pro-4-NHCH2 -2-F-aniline.HCl] | 53 ng/mL | 890 ng/mL | – | 1,600 ng/mL | – | 11 |
| CCS(=O)(=O)N[C@H](CC1CCCCC1)C(=O)N1CCC[C@H]1C(=O)NCc1ccc(N)cc1F [Example 82, EtSO2 -D-Cha-Pro-4-NHCH2 -3-F-C6 H3 NH2.HCl] | 130 ng/mL | 3,000 ng/mL | – | 3,800 ng/mL | 5.0 × 10^6 (L/mole) | – |
